Patent US20160077077A1, “Zinc Fluorescent Probe” (The Procter & Gamble Company, priority 2014, published 2016)

Columns and labels:
[1] = Metal ion sensing (fluorescence response of Compound R3 to other metal ions); details: excitation 560 nm
Description: (§1) The procedure for metal ion sensing is described. Solutions of the metal ions (10.0 mM) are prepared in deionized water. […] For titration experiments, a 2.0 mL solution of Compound R3 (20 μM) is filled in a quartz optical cell of 1 cm optical path length. Zn^2+ stock solution is added into the quartz optical cell gradually by micro-pipette. Spectral data is recorded at 5 min after addition. In selectivity experiments, test samples are prepared by placing appropriate amounts of metal ion stock into 2.0 mL solution of R3 (20 μM). For fluorescence measurements, excitation is provided at 560 nm, while emission is collected from 565 nm to 700 nm.

[2] = Metal ion sensing (fluorescence response of Compound R3 to Ca^2+); details: Compound R3 2.0 × 10^−5M + Ca^2+ 20.0 × 10^−5M, ethanol-PBS (1:1, v/v, pH 8.04), excitation 560 nm
Description: as §1

HeLa cells = experiment: Fluorescence imaging of intracellular Zn^2+ (CLSM); assay type: cell-based; details: λex 543 nm, emission 560-660 nm
Description: Confocal fluorescence imaging is performed with an OLYMPUS IX81 laser scanning microscope and a 60 ×oil-immersion objective lens. The microscope is equipped with multiple visible laser lines (405, 488, 543 nm). Images are collected and processed with Olympus FV10-ASW software.
The HeLa cell line is provided by Biochemistry and Cell Biology (China). Cells are grown in DMEM (Dulbecco's modified Eagle's medium) supplemented with 10% FBS (Fetal Bovine serum) and 5% CO2 at 37° C.
HeLa cells ([…]) are plated on […] glass cover slips and allowed to adhere for 24 hours. 10 μM of Compound R3 in the culture media containing 0.2% (v/v) DMSO is added to the cells. The cells are incubated at 37° C. for 30 min, and washed with PBS three times to remove the excess R3 probe and bathed in PBS (2 mL) before imaging. After washing with PBS (2 mL×3) to remove the excess probe, the cells are treated with 50 μM Zinc lactate for 30 min. Excitation of Compound R3 loaded cells at 543 nm is carried out with a semiconductor laser, and emission is collected at 560-660 nm (single channel).

[3] = Metal ion sensing (fluorescence response of Compound R3 to Zn^2+)
Description: The procedure for metal ion sensing is described. Solutions of the metal ions (10.0 mM) are prepared in deionized water. A stock solutions of Compound R3 (0.2 mM) is prepared in ethanol and then diluted to 20 μM with ethanol-water (1: 1, v/v, pH 7.04) for spectral measurement. For titration experiments, a 2.0 mL solution of Compound R3 (20 μM) is filled in a quartz optical cell of 1 cm optical path length. Zn^2+ stock solution is added into the quartz optical cell gradually by micro-pipette. Spectral data is recorded at 5 min after addition. In selectivity experiments, test samples are prepared by placing appropriate amounts of metal ion stock into 2.0 mL solution of R3 (20 μM). For fluorescence measurements, excitation is provided at 560 nm, while emission is collected from 565 nm to 700 nm.

[4] = Assessing Zn chelation effectiveness (R3 fluorescence with various zinc compounds)
Description: Another application of the composition of the present invention is assessing the effectiveness of a zinc chelator or a zinc chelating system. One aspect of the invention provides a method of assessing the Zn^2+ chelating effectiveness of Zn^2+ chelator or a Zn^2+ chelating system comprising the steps: (a) incubating the Zn^2+ chelator or a Zn^2+ chelating system with a compound of the present invention; (b) shining excitation light to the incubated Zn^2+ chelator or a Zn^2+ chelating system; and (c) detecting light emission from the compound from 560 nm to 660 nm.
There are at least three variables that may affect zinc chelation. Firstly, the inherent characteristic of any particularly zinc chelator compound. Such compounds include lactate, sulfate, nitrate, chloride, citrate, anions, and the like. Mechanism of actions may include ionic interaction (as in a salt) or covalent binding. Another variable is the concentration of one or more zinc chelators in a zinc chelating system. Generally, the more of a zinc chelator the more zinc chelation is observed. […]
Table 2 is the fluorescent relative intensity of inventive Compound R3 (5.0×10^−5 M) upon the addition of various zinc compounds. Each sample contains the same level of zinc ion (5.0×10^−4 M) in H2O/DMSO (1000:1, V/V) solution, with fluorescence assessed at an excitation of 560 nm.

[5] = test system: Streptococcus mutans (ATCC® 700610™); experiment: Fluorescence imaging of Zn^2+ in bacteria (CLSM); assay type: cell-based; details: λex 543 nm
Description: The Streptococcus mutans is prepared by inoculating the single colony from the BHI agar plate into 5 mL BHI broth and incubating at 37° C. for 48 hours. The Streptococcus mutans are separately stained with 10 μM of Compound R3 at 37° C. for 60 min.
FIG. 2a 2f are CLSM images of Streptococcus mutans (ATCC® 700610™) cells. FIGS. 2a, 2b, and 2c are said cells incubated with 10 μM of inventive Compound R3 for 60 min to assess base level background fluorescence noise. FIGS. 2d, 2e, and 2f are cells from the same sample pool subsequently incubated with 50 μM Zn^2+ for 60 min. And then red channel emission is collected at 560-660 nm for FIGS. 2b and 2e (λex=543 nm), while FIGS. 2a and 2d are bright-field images. FIG. 2c is an overlay of FIG. 2a and FIG. 2b, while FIG. 2f is an overlap of FIG. 2d and FIG. 2e.

[6] = Metal ion sensing (fluorescence response of Compound R3 to Hg^2+); details: excitation 560 nm
Description: as §1

## CCN(CC)c1ccc2c(c1)Oc1cc(N(CC)CC)ccc1C21c2ccccc2C(=O)N1CCNCc1ccc[nH]1 [Compound R3, 2-(2-(((1H-pyrrol-2-yl)methyl)amino)ethyl)-3′,6′-bis(diethylamino)spiro[isoindoline-1,9′-xanthen]-3-one]
[1]; Compound R3 20 μM, ethanol-water (1:1, v/v, pH 7.04), K^+, Ag^+, Ca^2+, Mg^2+, Pb^2+, Ni^2+, Mn^2+, Co^2+, Cd^2+, Cu^2+, Fe^2+, Cr^3+, Li^+, Ba^2+, Fe^3+, Na^+
  Fluorescence intensity in presence of other transition and heavy metal ions (selectivity): minimal fluorescence intensity
[1]; Compound R3 2.0 × 10^−5M + other metal ions (K^+, Ag^+, Ca^2+, Mg^2+, Pb^2+, Ni^2+, Mn^2+, Co^2+, Cd^2+, Cu^2+, Fe^2+, Cr^3+, Li^+, Ba^2+, Fe^3+, Na^+) 20.0 × 10^−5M, ethanol-PBS (1:1, v/v, pH 8.04)
  Peak Fluorescence Intensity (a.u.) at 570-580 nm: <0.1 a.u.
[2]
  Peak Fluorescence Intensity (a.u.) at 570-580 nm: 0.25 a.u.
HeLa cells; 10 μM Compound R3 30 min at 37° C., then 50 μM Zn^2+ 30 min
  Intracellular fluorescence in HeLa cells after Zn^2+: significant fluorescence increase
HeLa cells; 10 μM Compound R3, 30 min, 37° C., no Zn^2+ (FIG. 1b)
  Fluorescence emission in HeLa cells without Zn^2+: no fluorescence emission
[3]; Compound R3 20 μM in control ethanol-water (1:1, v/v, pH 7.04), no Zn^2+
  Fluorescence of the solution without metal ion: non fluorescent
[3]; Compound R3 20 μM, ethanol-water (1:1, v/v, pH 7.04), Zn^2+ 0-12 eq, excitation 560 nm
  Fluorescence at 580 nm on addition of Zn^2+: turned on and grew drastically
[3]; Compound R3 20 μM, ethanol-water (1:1, v/v, pH 7.04), excitation 560 nm
  Fluorescence intensity in presence of Zn^2+ (selectivity): greatest fluorescence intensity
[3]; Compound R3 2.0 × 10^−5M + Zn^2+ 20.0 × 10^−5M, ethanol-PBS (1:1, v/v, pH 8.04), excitation 560 nm
  Peak Fluorescence Intensity (a.u.) at 570-580 nm: 0.7 a.u.
[4]; Compound R3 5.0×10^−5 M only (control, no zinc), H2O/DMSO (1000:1, V/V), excitation 560 nm
  Peak Fluorescence Intensity (a.u.) at 570-580 nm: 0.1 a.u.
[5]; 10 μM Compound R3 60 min at 37° C., then 50 μM Zn^2+ 60 min, emission 560-660 nm (FIG. 2e)
  Fluorescence in Streptococcus mutans after Zn^2+: significant fluorescence increase
[5]; 10 μM Compound R3, 60 min, 37° C., emission 560-660 nm, no Zn^2+ (FIG. 2b)
  Fluorescence emission in Streptococcus mutans without Zn^2+: no fluorescence emission
[6]; Compound R3 20 μM, ethanol-water (1:1, v/v, pH 7.04)
  Fluorescence intensity in presence of Hg^2+ (selectivity): greatest fluorescence intensity
[6]; Compound R3 2.0 × 10^−5M + Hg^2+ 20.0 × 10^−5M, ethanol-PBS (1:1, v/v, pH 8.04)
  Peak Fluorescence Intensity (a.u.) at 570-580 nm: 1.0 a.u.

## CC(O)C(=O)[O-].CC(O)C(=O)[O-].[Zn+2] (stereo not drawn) [zinc lactate, reference compound]
[4]; among the zinc chelators tested (lactate, sulfate, citrate), from Table 2
  Relative degree of zinc chelation effectiveness: weakest relative degree of zinc chelation effectiveness
